The text below walks through data of patent publication US9334256B2, “Agents and methods for treating ischemic and other diseases” (NoNO INC., priority 2011, dated 2016).

This test deals with T1, TRPM7 (Mus musculus, UniProt Q923J1).
T1 construct: expressed in transfected cells; host or cells: HEK-293 tSA (HEK-293T) cells, transient transfection with Lipofectamine 2000
Nature of the test: PI uptake cell death assay in TRPM7-expressing HEK-293 cells (type of assay from Example 1). The class given is cell-based, murine. The source says:
The TRPM7 channel provides a pathway for mono- and divalent cations into the cell, and is unique in that it contains a functional C-terminal α-kinase domain. […] The induction of chemical anoxia in host cells such as recombinant HEK293 cells can be used to activate TRPM7. This activation is detectable with the use measurements of cellular calcium accumulation. This is achievable with the use of a fluorescent calcium indicator. Alternatively, this activation can also be measured using radiolabelled Ca2+ (^45Ca^2+) as described previously by Sattler et al. (Sattler et al., 1998) and Aarts et al. (Aarts et al., 2003).
Hoechst 33342 was purchased as a 10 mg/mL solution in water (Molecular Probes Inc., Eugene, Oreg.). Propidium iodide (PI) was purchased as a powder and prepared by dissolving in PBS at 1 mg/mL. PI solutions were stored at 4° C. until use. Hoechst and PI were added directly to cell culture to 5 μg/mL and 10 μg/mL respectively. Cells were incubated at room temperature or at 37° C. for 10 minutes to allow for adequate uptake, and fluorescence observed using a NIKON Eclipse TE2000 inverted microscope and TE-FM Epi-Fluorescence attachment (Nikon Canada).
Untransfected cells or cells transfected with the TRPM7/pTracer or ΔPDZ/pTracer construct were plated onto 24-well plates, 24-hours post-transfection. Untransfected cells were plated at 0.75×10^6 cells/well and transfected cells at 1×10^6 cells/well. The plates were coated with poly-D-lysine to strengthen cell adhesion and to minimize cell loss during washes. Cells were loaded by incubation with 5 μM fluo-3 AM and 0.02% pluronic in HBSS at 37° C. for 30 minutes. Following loading, cells were washed with an aglycaemic HBSS containing, in mM: 20 N-methyl-D-glucamine (NMDG), 121 NaCl, 5 KCl, 10 HEPES acid, 10 HEPES-Na salt, 3 NaHCO3, 1 Na-pyruvate, and 1.8 CaCl2, pH adjusted to 7.4 with HCl. Calcium uptake, as assessed by fluo-3 fluorescence, was measured in response to 0, 5, 10, 15, 20, or 25 mM sodium cyanide (NaCN; Mallinckrodt Baker Inc., Phillipsburg, N.J.) dissolved in aglycaemic HBSS. A 250 mM NaCN stock was prepared in water and stored at room temperature for up to 2 weeks. Measurements of fluo-3 fluorescence were taken over a 2 hour period at 10 minutes intervals at room temperature (22-25° C.). Calcium uptake assays were performed 48 hours post-transfection.
Cell death, as assessed by PI uptake, was examined at the end of the 2 hour calcium uptake assay. Cells were stained with 10 μg/mL PI and PI fluorescence measured using the Fluoroskan microplate reader (λ excitation=590 nm, λ emission=630 nm) and accompanying Ascent software (Thermo Electron Corp.). To obtain a reading of maximal fluorescence (Fmax), 0.5% Triton X-100 was added to each well and allowed to incubate for 20 minutes. Cell death assays were performed 48 hours post-transfection.
Data was entered into Excel (Microsoft, Seattle, Wash.) or SigmaPlot (SPSS Inc., Chicago, Ill.) for analysis. Pooled data are presented as the mean of at least 3 separate experiments±sem. Calcium uptake is expressed as a fraction of baseline uptake: ΔFt=(Ft−Fo)/Fo where Ft is the fluorescence at time t, and Fo is the fluorescence at baseline. Cell death is expressed as a percentage of total cell death: cell death (%)=Ft/Fmax×100 where Ft is the fluorescence at time t and Fmax is the maximal fluorescence obtained by permeabilization with Triton X-100. Concentration-response curves were fit by nonlinear regression with a 4 parameter logistic curve represented by the following equation: y=min+{(max−min)/[1+(x/EC50)n]} where y is the response at concentration x, min is the minimal response, max is the maximal response, EC50 is the concentration required for half-maximal response, and n is the Hill slope. Statistical analysis of data was carried out with a two-tailed Student's t test, or a one-way analysis of variance (ANOVA) followed by post hoc pairwise multiple comparisons testing using the Holm-Sidak method, where appropriate. […]

The mark [1] stands for this setting: Table X, the lower the number, the more potent in protecting against cell death.
Where [2] appears, read: Table X, the lower the number, the more potent.
[3] abbreviates: Table Y, commercially available compounds.

T1 sequence (Q923J1 whole entry): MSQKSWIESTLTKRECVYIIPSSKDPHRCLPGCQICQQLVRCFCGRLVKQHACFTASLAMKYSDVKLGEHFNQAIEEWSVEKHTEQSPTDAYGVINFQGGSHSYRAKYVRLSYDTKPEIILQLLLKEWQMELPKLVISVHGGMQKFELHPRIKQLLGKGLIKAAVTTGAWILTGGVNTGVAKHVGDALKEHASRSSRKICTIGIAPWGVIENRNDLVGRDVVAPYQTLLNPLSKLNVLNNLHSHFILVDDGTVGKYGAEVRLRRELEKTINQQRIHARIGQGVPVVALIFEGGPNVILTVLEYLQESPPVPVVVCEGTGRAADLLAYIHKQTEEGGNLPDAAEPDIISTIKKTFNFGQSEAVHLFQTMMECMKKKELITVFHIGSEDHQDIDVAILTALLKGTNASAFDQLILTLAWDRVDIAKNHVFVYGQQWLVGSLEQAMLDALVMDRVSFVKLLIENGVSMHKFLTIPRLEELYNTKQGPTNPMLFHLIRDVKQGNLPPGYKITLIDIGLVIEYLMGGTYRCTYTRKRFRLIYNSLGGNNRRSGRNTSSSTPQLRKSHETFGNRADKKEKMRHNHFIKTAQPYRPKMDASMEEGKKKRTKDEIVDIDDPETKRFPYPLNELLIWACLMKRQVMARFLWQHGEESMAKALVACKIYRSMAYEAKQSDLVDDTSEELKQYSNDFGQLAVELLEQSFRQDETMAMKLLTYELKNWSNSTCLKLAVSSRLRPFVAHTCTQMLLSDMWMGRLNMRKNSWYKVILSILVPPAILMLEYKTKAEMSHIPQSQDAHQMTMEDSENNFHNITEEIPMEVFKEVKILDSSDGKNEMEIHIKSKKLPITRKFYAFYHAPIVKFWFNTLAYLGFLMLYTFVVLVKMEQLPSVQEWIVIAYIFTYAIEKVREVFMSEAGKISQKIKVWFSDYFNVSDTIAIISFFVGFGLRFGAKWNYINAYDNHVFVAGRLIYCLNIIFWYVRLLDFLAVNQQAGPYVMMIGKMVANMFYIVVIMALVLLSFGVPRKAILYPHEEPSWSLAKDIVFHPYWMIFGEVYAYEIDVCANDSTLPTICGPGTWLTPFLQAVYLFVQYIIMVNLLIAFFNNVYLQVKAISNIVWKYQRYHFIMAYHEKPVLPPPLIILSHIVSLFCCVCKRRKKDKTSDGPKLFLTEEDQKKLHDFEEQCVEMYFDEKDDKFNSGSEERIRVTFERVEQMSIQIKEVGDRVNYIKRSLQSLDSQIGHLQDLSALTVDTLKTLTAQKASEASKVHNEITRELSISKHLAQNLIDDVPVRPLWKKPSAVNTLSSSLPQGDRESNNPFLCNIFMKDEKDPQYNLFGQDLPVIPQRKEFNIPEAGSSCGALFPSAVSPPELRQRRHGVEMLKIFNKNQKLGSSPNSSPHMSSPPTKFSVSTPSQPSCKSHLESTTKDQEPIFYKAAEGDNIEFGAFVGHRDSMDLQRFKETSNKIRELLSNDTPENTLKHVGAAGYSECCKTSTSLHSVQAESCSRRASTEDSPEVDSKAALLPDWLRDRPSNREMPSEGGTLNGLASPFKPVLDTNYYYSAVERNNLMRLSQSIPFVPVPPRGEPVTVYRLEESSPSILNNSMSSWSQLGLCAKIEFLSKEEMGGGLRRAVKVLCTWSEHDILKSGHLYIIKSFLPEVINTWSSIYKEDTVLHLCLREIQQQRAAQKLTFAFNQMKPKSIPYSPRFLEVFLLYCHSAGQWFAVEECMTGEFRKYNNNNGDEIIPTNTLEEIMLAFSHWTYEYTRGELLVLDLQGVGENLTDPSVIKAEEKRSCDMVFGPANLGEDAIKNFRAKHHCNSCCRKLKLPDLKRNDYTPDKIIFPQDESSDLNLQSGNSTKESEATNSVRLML

Broadly, the IC50 is the midpoint of a concentration-inhibition curve. A higher IC50 goes with weaker potency in that assay. In the case of `Cc1c(Cc2cccc(Cl)c2)c(=O)oc2cc(O)cc(O)c12` [Compound 77], the “Normalized ratio of PI uptake (5 μM)” value under setting [1] was 0.071. Under setting [2], the “Normalized ratio of PI uptake (10 μM)” value is given as 0.003. For the setting “Table X”, this compound had an IC50 of 1.99 µM.
For the compound `CC1c2ccsc2CCN1C(=O)c1[nH]c2ccccc2c1Cl` (stereo not shown) [T6899791 #8, reference compound], under setting [3], the “Normalized ratio of PI uptake (5 μM)” value is 0, the “Normalized ratio of PI uptake (10 μM)” value worked out at 0 and inhibition was half-maximal at 0.7 µM (IC50).
For `Cc1ccc2c(c1)CCNC2c1sc2ccccc2c1Cl` (stereo not shown) [Compound 54], the “Normalized ratio of PI uptake (5 μM)” value under setting [1] was 0.024. The “Normalized ratio of PI uptake (10 μM)” value under setting [2] turned out to be 0.029. Besides, the IC50 (Table X) came out at 1.5 µM.
Taken in the same sequence, the figures for `Cc1ccc(N(Cc2ccncc2)C(=O)c2sc3ccccc3c2Cl)c(C)c1` [Compound 98] were 0.36, 0.067 and 2.53 µM.
Taken in the same sequence, the figures for `Cc1c(Cc2cccc(Cl)c2)c(=O)[nH]c2cc(O)cc(O)c12` [Compound 140] were 0.487, 0.062 and 11.1 µM.
As for `O=C(c1sc2ccccc2c1Cl)N(Cc1ccccc1)c1ccccc1` [MCC1879 #5, reference compound], under setting [3], the “Normalized ratio of PI uptake (5 μM)” value stood at 0.108, the “Normalized ratio of PI uptake (10 μM)” value stood at 0.062 and it took 1.77 µM to reach half-maximal inhibition (IC50).
For `Fc1cccc2c1CCN=C2c1sc2ccccc2c1Cl` [Compound 112], the “Normalized ratio of PI uptake (5 μM)” value under setting [1] amounted to 0.666. Under setting [2], the “Normalized ratio of PI uptake (10 μM)” value turned out to be 0.244.
For the compound `COc1cc2c(cc1OC)C(c1sc3cc(OC)c(OC)cc3c1Cl)NCC2` (stereo not shown) [Compound 126], the “Normalized ratio of PI uptake (5 μM)” value under setting [1] came to 0.012. Besides, the “Normalized ratio of PI uptake (10 μM)” value under setting [2] was 0.059. Half-maximal inhibition (Table X) (IC50) required 1.03 µM.
The like results for `COc1ccc(C)c(N(Cc2ccccn2)C(=O)c2sc3ccccc3c2Cl)c1` [Compound 52] were, in that order, 0.079, 0.022 and 1.29 µM.
Taken in the same sequence, the figures for `Cc1ccc2c(c1)CCCN2C(=O)c1sc2cc(C(F)(F)F)ccc2c1Cl` [Compound 46] were 0.149, 0.137 and 1.88 µM.
Taken in the same sequence, the figures for `COc1cc2ccnc(-c3sc4ccccc4c3Cl)c2cc1OC` [Compound 108] were 0.038, 0.11 and 1.09 µM.
For the compound `COc1cc(OC)c2c(C)c(Cc3ccc(Cl)cc3)c(=O)[nH]c2c1` [Compound 93], the “Normalized ratio of PI uptake (5 μM)” value under setting [1] is 0.071. The “Normalized ratio of PI uptake (10 μM)” value under setting [2] worked out at 0.041. In addition, 0.21 µM corresponded to half-maximal inhibition (Table X) (IC50).
On to `COc1ccc(C)c(N(CC(=O)c2cccs2)C(=O)c2sc3ccccc3c2Cl)c1` [Compound 103], for which the “Normalized ratio of PI uptake (5 μM)” value under setting [1] is recorded as 0.444. Further, the “Normalized ratio of PI uptake (10 μM)” value under setting [2] came out at 0.312. The IC50 (Table X) stood at 0.81 µM.
The like results for `COc1ccc2c(c1)C(c1sc3cccc(C)c3c1Cl)NCC2` (stereo not shown) [Compound 128] were, in that order, 0.01, 0.06 and 0.43 µM.
Turning to `COc1ccc2c(Cl)c(C3=NCCc4cc(OC)c(OC)cc43)sc2c1` [Compound 67], the “Normalized ratio of PI uptake (5 μM)” value under setting [1] is recorded as 0.054. Moreover, under setting [2], the “Normalized ratio of PI uptake (10 μM)” value was determined as 0.019. Where the note is “Table X”, this compound yielded an IC50 of 0.37 µM.
Taken in the same sequence, the figures for `COc1ccc2c(c1)C(c1sc3ccccc3c1Cl)NCC2` (stereo not shown) [Compound 124] were 0, 0.06 and 1.13 µM.
The like results for `Cc1ccc(N(Cc2ccccn2)C(=O)c2sc3ccccc3c2Cl)c(C)c1` [Compound 57] were, in that order, 0.110, 0.039 and 1.71 µM.
In the case of `CCCc1c(Cc2cccc(Cl)c2)c(=O)[nH]c2cc(O)cc(O)c12` [Compound 134], the “Normalized ratio of PI uptake (5 μM)” value under setting [1] is recorded as 0.564. Further, under setting [2], the “Normalized ratio of PI uptake (10 μM)” value is reported as 0.305.
Take `Fc1ccc2c(c1)CCNC2c1sc2ccccc2c1Cl` (stereo not shown) [Compound 43]: under setting [1], the “Normalized ratio of PI uptake (5 μM)” value came out at 0.060. Under setting [2], the “Normalized ratio of PI uptake (10 μM)” value is on record as 0.020. This compound showed an IC50 (Table X) of 2.54 µM.
Taken in the same sequence, the figures for `Cc1ccc2c(c1)CCN(C)C2c1sc2ccccc2c1Cl` (stereo not shown) [Compound 55] were 0.147, 0.059 and 2.14 µM.
As for `Cc1c(Cc2c(Cl)cccc2Cl)c(=O)oc2cc(O)c(Cl)cc12` [RJF00028SC #11, reference compound], under setting [3], the “Normalized ratio of PI uptake (5 μM)” value was 0.233, the “Normalized ratio of PI uptake (10 μM)” value is on record as 0.136 and the IC50 amounted to 3.16 µM.
Regarding `Cc1cccc2sc(C3=NCCc4ccc(Cl)cc43)c(Cl)c12` [Compound 116], under setting [1], the “Normalized ratio of PI uptake (5 μM)” value amounted to 0.788. Besides, the “Normalized ratio of PI uptake (10 μM)” value under setting [2] is 0.358. Further, for the setting “Table X”, the IC50 was found to be 4.75 µM.
On to `O=C(NC1CCOc2ccccc21)c1cc2ccccc2[nH]1` (stereo not shown) [T6749380 #12, reference compound], for which, under setting [3], the “Normalized ratio of PI uptake (5 μM)” value is listed as 0.043, the “Normalized ratio of PI uptake (10 μM)” value worked out at 0.029 and the IC50 was 2.8 µM.
The like results for `COc1ccc(-c2n[nH]cc2CN(C)Cc2cc3ccccc3s2)cc1F` [Ambcb42783454 #13, reference compound] were, in that order, 0.498, 0.266 and 4.7 µM.
Regarding `Clc1cccc2c1CCNC2c1sc2ccccc2c1Cl` (stereo not shown) [Compound 125], the “Normalized ratio of PI uptake (5 μM)” value under setting [1] is reported as 0.363. In addition, the “Normalized ratio of PI uptake (10 μM)” value under setting [2] is 0.122. This compound also gave an IC50 (Table X) of 4.69 µM.
Take `Cc1c(Cc2ccccc2)c(=O)oc2c(CN(C)C)c(O)ccc12` [STOCK1N- 36829 #3, reference compound]: under setting [3], the “Normalized ratio of PI uptake (5 μM)” value is 0.262, the “Normalized ratio of PI uptake (10 μM)” value amounted to 0.102 and half-maximal inhibition (IC50) required 4.72 µM.
Turning to `COc1cc2c(cc1OC)C(c1sc3cc(C(F)(F)F)ccc3c1Cl)NCC2` (stereo not shown) [Compound 72], the “Normalized ratio of PI uptake (5 μM)” value under setting [1] turned out to be 0.000. Also, the “Normalized ratio of PI uptake (10 μM)” value under setting [2] is reported as 0.000. For the same compound, the IC50 (Table X) is 0.39 µM.
With `Cc1ccc2c(c1)CCCN2C(=O)c1sc2cc(F)ccc2c1Cl` [Compound 7], the “Normalized ratio of PI uptake (5 μM)” value under setting [1] is on record as 0.274. In addition, the “Normalized ratio of PI uptake (10 μM)” value under setting [2] was 0.067. Moreover, the IC50 (Table X) is 4.05 µM.
On to `Fc1ccc2c(c1)CCN=C2c1sc2ccccc2c1Cl` [Compound 42], for which the “Normalized ratio of PI uptake (5 μM)” value under setting [1] is reported as 0.304. In addition, the “Normalized ratio of PI uptake (10 μM)” value under setting [2] was determined as 0.010. Besides, the IC50 (Table X) was found to be 3.99 µM.
With `COc1cc(OC)c2c(C)c(Cc3ccc(F)cc3)c(=O)[nH]c2c1` [Compound 138], the “Normalized ratio of PI uptake (5 μM)” value under setting [1] is recorded as 0.034. Moreover, the “Normalized ratio of PI uptake (10 μM)” value under setting [2] worked out at 0.026. Besides, the IC50 (Table X) came to 0.47 µM.
Taken in the same sequence, the figures for `COc1cc(OC)c2c(C)c(Cc3ccc(Cl)c(Cl)c3)c(=O)[nH]c2c1` [Compound 130] were 0.1, 0.06 and 0.93 µM.
